Paper PMC6171417, “Carbonic anhydrase inhibition with a series of novel benzenesulfonamide-triazole conjugates” (Journal of Enzyme Inhibition and Medicinal Chemistry, 2018)

Columns and labels:
Assay in all cases: cells
Design in all cases: species or system NCI human tumour cell line panel; NCI one-dose anti-proliferative screen, human tumour cell line panel, growth inhibition percent (GI%)
HOP-92 = conditions: Homo sapiens, HOP-92; growth inhibition (GI%), single dose
Experimental: (§1) Ten of the newly synthesised 1,2,3-triazolo benzenesulfonamide derivatives were selected by NCI (Bethesda, MD) for evaluating their anti-proliferative activity. The selected compounds were subjected to a primary in vitro one-dose ([…]) anti-proliferative assay against 57 human tumour cell lines following the previously reported method[30] and their obtained growth inhibition percent (GI%) are presented in Table 2. A subset of ten triazolo-benzenesulfonamides (3, 5, 6, 7, 9, 11, 16–18, and 20) were selected and subjected to an in vitro anti-proliferative screening against a panel of 57 cancer cell lines at NCI at an initial high dose ([…]). The human cell lines used were derived from nine cancer types: leukaemia, lung, colon, CNS, melanoma, ovarian, renal, prostate and breast cancers.

LOX IMVI = conditions: Homo sapiens, LOX IMVI; growth inhibition (GI%), single dose
Experimental: as §1

M14 = conditions: Homo sapiens, M14; growth inhibition (GI%), single dose
Experimental: as §1

UO-31 = conditions: Homo sapiens, UO-31; growth inhibition (GI%), single dose
Experimental: as §1

SF-268 = conditions: Homo sapiens, SF-268; growth inhibition (GI%), single dose
Experimental: as §1

U251 = conditions: Homo sapiens, U-251; growth inhibition (GI%), single dose
Experimental: as §1

SW-620 = conditions: Homo sapiens, SW-620; growth inhibition (GI%), single dose
Experimental: as §1

MDA-MB-435 = conditions: Homo sapiens, MDA-MB-435; growth inhibition (GI%), single dose
Experimental: as §1

SN12C = conditions: Homo sapiens, SN12C; growth inhibition (GI%), single dose
Experimental: as §1

OVCAR-4 = conditions: Homo sapiens, OVCAR-4; growth inhibition (GI%), single dose
Experimental: as §1

SNB-19 = conditions: Homo sapiens, SNB-19; growth inhibition (GI%), single dose
Experimental: as §1

SR = conditions: Homo sapiens, SR; growth inhibition (GI%), single dose
Experimental: as §1

SNB-75 = conditions: Homo sapiens, SNB-75; growth inhibition (GI%), single dose
Experimental: as §1

UACC-257 = conditions: Homo sapiens, UACC-257; growth inhibition (GI%), single dose
Experimental: as §1

NCI-H23 = conditions: Homo sapiens, NCI-H23; growth inhibition (GI%), single dose
Experimental: as §1

NCI/ADR-RES = conditions: Homo sapiens, NCI/ADR-RES; growth inhibition (GI%), single dose
Experimental: as §1

KM12 = conditions: Homo sapiens, KM12; growth inhibition (GI%), single dose
Experimental: as §1

HCT-15 = conditions: Homo sapiens, HCT-15; growth inhibition (GI%), single dose
Experimental: as §1

MDA-MB-468 = conditions: Homo sapiens, MDA-MB-468; growth inhibition (GI%), single dose
Experimental: as §1

MDA-MB-231/ATCC = conditions: Homo sapiens, MDA-MB-231; growth inhibition (GI%), single dose
Experimental: as §1

Compound	inhibition at 10 µM (HOP-92)	inhibition at 10 µM (LOX IMVI)	inhibition at 10 µM (M14)	inhibition at 10 µM (UO-31)	inhibition at 10 µM (SF-268)	inhibition at 10 µM (U251)	inhibition at 10 µM (SW-620)	inhibition at 10 µM (MDA-MB-435)	inhibition at 10 µM (SN12C)	inhibition at 10 µM (OVCAR-4)	inhibition at 10 µM (SNB-19)	inhibition at 10 µM (SR)	inhibition at 10 µM (SNB-75)	inhibition at 10 µM (UACC-257)	inhibition at 10 µM (NCI-H23)	inhibition at 10 µM (NCI/ADR-RES)	inhibition at 10 µM (KM12)	inhibition at 10 µM (HCT-15)	inhibition at 10 µM (MDA-MB-468)	inhibition at 10 µM (MDA-MB-231/ATCC)
N#Cc1nnn(-c2ccc(S(N)(=O)=O)cc2)c1N [compound 3, 3]	8.2%	6.1%	2.7%	14.5%	2.8%	0.6%	5.1%	3.1%	1.1%	4.1%	2.9%	3.5%	15%	10.2%						
CCn1c(=S)[nH]c2c(nnn2-c2ccc(S(N)(=O)=O)cc2)c1=N [compound 20, 4-(6-ethyl-7-imino-5-thioxo-4,5,6,7-tetrahydro-3H-[1,2,3]triazolo[4,5-d]pyrimidin-3-yl)benzenesulfonamide]	18%	4.6%		7.3%		1.9%			0.9%		1.9%	7.5%	3.3%	6.2%	9.4%	2.2%				
N#Cc1nnn(-c2ccc(S(N)(=O)=O)cc2)c1/N=C/c1ccc(Cl)cc1 [compound 9, 9]	12.8%			0.3%		4.7%		3.4%				15.8%	2.9%	2.3%		5.4%	0.5%	4.3%		
N#Cc1nnn(-c2ccc(S(N)(=O)=O)cc2)c1NCC(=O)c1ccccc1 [compound 7, 7]	13.5%	5.9%	2.6%	21.1%	6.5%	6.4%	2.8%	8.3%	2.9%	10.2%	7.8%	9.3%	20.1%	11.7%	2.1%		0.6%	1.7%	3.3%	4.9%
N#Cc1c(-c2ccc(Cl)cc2)nc2c(nnn2-c2ccc(S(N)(=O)=O)cc2)c1N [compound 16, 4-(7-amino-5-(4-chlorophenyl)-6-cyano-3H-[1,2,3]triazolo[4,5-b]pyridin-3-yl)benzenesulfonamide]	35.4%	20.4%		25%	5.4%	2.7%		2.9%	8.9%	21.6%	3.4%	16.8%	20%	6.9%	11.2%	4.2%		1.6%		24.2%
CN(C)c1ccc(-c2nc3c(nnn3-c3ccc(S(N)(=O)=O)cc3)c(N)c2C#N)cc1 [compound 17, 4-(7-amino-6-cyano-5-(4-(dimethylamino)phenyl)-3H-[1,2,3]triazolo[4,5-b]pyridin-3-yl)benzenesulfonamide]	18.5%	9.6%	3.5%	29.9%	3.9%	12.6%	2.7%		4.7%	0.8%	0.8%	3.2%	21.6%	8.4%	9.8%		5.9%	1.2%	3.2%	18%
Nc1nc(=S)[nH]c2c1nnn2-c1ccc(S(N)(=O)=O)cc1 [compound 18, 4-(7-amino-5-thioxo-4,5-dihydro-3H-[1,2,3]triazolo[4,5-d]pyrimidin-3-yl)benzenesulfonamide]	10.6%	7.5%		13.8%	1.5%		4.3%		1.2%	7.9%	1.7%	1.7%	13.9%	6.1%	4.7%				3.5%	14.8%
N#Cc1nnn(-c2ccc(S(N)(=O)=O)cc2)c1NS(=O)(=O)c1ccccc1 [compound 11, N-(4-cyano-1-(4-sulfamoylphenyl)-1H-1,2,3-triazol-5-yl)benzenesulfonamide]	4.2%		3.3%	13.4%		10.9%	2.3%		1.6%		2.8%	9.2%	10.2%	8.1%	4.1%	3.2%				
